Reference: patent US10626109B2, “N-hetaryl(thio)carbonyl-2-(benzocycloalken-1-yl)cyclamines and their use as fungicides” (BAYER CROPSCIENCE AKTIENGESELLSCHAFT, priority 2013, dated 2020)

Assay: log P by HPLC on reversed-phase column (C 18), EEC Directive 79/831 Annex V.A8
Assay type: physicochemical
Conditions: Table 1, HPLC, 0.1% aqueous formic acid and acetonitrile, 40° C.
Method: In table 1, the log P values were determined in accordance with EEC Directive 79/831 Annex V.A8 by HPLC (High Performance Liquid Chromatography) on a reversed-phase column (C 18), using the method described below: Temperature: 40° C.; Mobile phases: 0.1% aqueous formic acid and acetonitrile; linear gradient from 10% acetonitrile to 90% acetonitrile. Calibration was carried out using unbranched alkan-2-ones (comprising 3 to 16 carbon atoms) with known log P values (determination of the log P values by the retention times using linear interpolation between two successive alkanones). lambda-max-values were determined using UV-spectra from 200 nm to 400 nm and the peak values of the chromatographic signals. In table 2, M+H (Apcl+) and log P are defined as for table 1.

[1] = second value of a mixture of two diastereoisomers
[2] = single value, or first value of a mixture of two diastereoisomers

logP [1]	logP [2]	chromatographic logP (reversed-phase HPLC column (C 18), single value, or first value of a mixture of two diastereoisomers, read-out: logP)	SMILES
3.00	2.84		Cn1cc(C(=O)N2CCCC2C2CCc3cc(F)ccc32)c(C(F)F)n1 (mixture of isomers) [I.17]
3.37	3.29		Cn1nc(C(F)F)c(C(=O)N2CCCC2C2CCc3cc(F)ccc32)c1F (mixture of isomers) [I.18]
3.27	3.19		Cn1cc(C(=O)N2CCCC2C2CCc3ccc(Cl)cc32)c(C(F)F)n1 (mixture of isomers) [I.19]
3.92	3.87		Cn1nc(C(F)F)c(C(=O)N2CCCC2C2CCc3ccc(Cl)cc32)c1Cl (mixture of isomers) [I.20]
3.70	3.68		Cn1nc(C(F)F)c(C(=O)N2CCCC2C2CCc3ccc(Cl)cc32)c1F (mixture of isomers) [I.21]
3.79	3.68		Cn1nc(C(F)F)c(C(=O)N2CCCC2C2CCCc3ccccc32)c1Cl (mixture of isomers) [I.25]
4.77	4.56		Cn1nc(C(F)F)c(C(=S)N2CCCC2C2CCCc3ccccc32)c1Cl (mixture of isomers) [I.28]
3.13	2.96		Cn1cc(C(=O)N2CCCCC2C2CCc3ccccc32)c(C(F)F)n1 (mixture of isomers) [I.29]
3.55	3.44		Cn1nc(C(F)F)c(C(=O)N2CCCCC2C2CCc3ccccc32)c1F (mixture of isomers) [I.30]
3.68	3.50		Cn1cc(C(=O)N2CCCCC2C2CCCCc3ccccc32)c(C(F)F)n1 (mixture of isomers) [I.33]
4.15	3.96		Cn1nc(C(F)F)c(C(=O)N2CCCCC2C2CCCCc3ccccc32)c1F (mixture of isomers) [I.34]
2.90	2.46		Cn1cc(C(=O)N2CCCCC2C2CCOc3ccccc32)c(C(F)F)n1 (mixture of isomers) [I.35]
3.27	2.86		Cn1nc(C(F)F)c(C(=O)N2CCCCC2C2CCOc3ccccc32)c1F (mixture of isomers) [I.36]

The remaining lines, values behind:

SMILES	logP [1]	logP [2]	chromatographic logP (reversed-phase HPLC column (C 18), single value, or first value of a mixture of two diastereoisomers, read-out: logP)
Cn1cc(C(=O)N2CCCC2C2CCc3c(F)cccc32)c(C(F)F)n1 (mixture of isomers) [I.01]	2.98	2.88	
Cn1nc(C(F)F)c(C(=O)N2CCCC2C2CCc3c(F)cccc32)c1F (mixture of isomers) [I.03]	3.35	3.31	
Cn1nc(C(F)F)c(C(=O)N2CCCC2C2CCc3cc(Cl)cc(Cl)c32)c1Cl (mixture of isomers) [I.09]	4.41	4.34	
Cn1nc(C(F)F)c(C(=O)N2CCCC2C2CCc3cc(F)cc(F)c32)c1Cl (mixture of isomers) [I.12]	3.59	3.55	
Cn1nc(C(F)F)c(C(=O)N2CCCC2C2CCc3cc(F)cc(F)c32)c1F (mixture of isomers) [I.13]	3.41	3.35	
O=C(c1ccsc1Br)N1CCCC1C1CCc2c(F)cccc21 (single isomer, unassigned) [I.04]		3.87	
O=C(c1ccsc1Br)N1CCCC1C1CCc2c(F)cccc21 (single isomer, unassigned) [I.05]		3.96	
Cc1cc(C(=O)N2CCCC2C2CCc3c(F)cccc32)c(C)o1 (single isomer, unassigned) [I.06]		3.74	
Cc1cc(C(=O)N2CCCC2C2CCc3c(F)cccc32)c(C)o1 (single isomer, unassigned) [I.07]		3.90	
Cn1nc(C(=O)N2CCCC2C2CCc3cc(F)cc(F)c32)c(C(F)F)n1 (single isomer, unassigned) [I.14, [2-(5,7-difluoro-2,3-dihydro-1H-inden-1-yl)pyrrolidin-1-yl][5-(difluoromethyl)-2-methyl-2H-1,2,3-triazol-4-yl]methanone]			3.41
